The record followed here is paper PMC6950567, “Evaluation of Marine Diindolinonepyrane in Vitro and in Vivo: Permeability Characterization in Caco-2 Cells Monolayer and Pharmacokinetic Properties in Beagle Dogs” (Marine Drugs, 2019).

The nature of data set [1]: Caco-2 cells monolayer absorption and bidirectional transport experiment. It is filed as in vitro ADME, human. The note with it: human; for Papp A→B at 2 h, 2 µM: read-out: Mean Papp AP to BL; for Papp B→A at 2 h, 2 µM: read-out: Mean Papp BL to AP; for recovery at 2 h: direction not specified, read-out: total recovery rate of control drugs. As to the method:
(§1) The samples included three control drugs (fenoterol, propranolol, and digoxin) and 2,5-BHPA. […] For transfer in the AP→BL direction, 0.075 mL drug solution was added to the AP side as the supply pool, and 0.25 mL HBSS solution was added to the BL side as the receiving pool. In the BL→AP direction, 0.25 mL compound solution was added to the BL side as the supply pool, and 0.075 mL HBSS solution was added to the AP side as the receiving pool. The transwell plate was then cultured in an incubator at 37 °C for 2 h. Samples on the AP side and BL side were collected, respectively. Then, acetonitrile containing an internal label was added to each upper chamber to lyse transport membranes. The total recovery was calculated by collecting the amount of lead compound absorbed on the membrane surface or accumulated in the cell. Finally, the concentration of each sample was calculated as the ratio of the peak area between the compound and the inner target through mass spectrum analysis (API 4000).
(§2) Papp = (dCr/dt) × Vr/(A × C0)(2) where dCr/dt is the cumulative compound concentration per unit of time (µM/s); Vr is the volume in the receiving hole (mL); A is the transport membrane area; and C0 is the compound initiation concentration (µM).
On the technique in general: Passage across Caco-2 layers is used to estimate intestinal permeability.

The subject of data set [2] is Caco-2 cells monolayer. The description is as above. It is filed as in vitro ADME, human. As for the experimental part:
as §1, §2

The test system of data set [3] is Caco-2 cell model.
Method: Caco-2 cells were cultured in a CO-150 INNOVA CO^2 incubator with DEME (Dulbecco’s modified eagle) medium, including 10% fetal calf serum, 1% non-essential amino acid, and penicillin (streptomycin dual) resistance solution. The cells were cultured at constant temperature in a closed incubator with the following conditions: 37 °C, 5% CO^2, and 95% relative humidity. When the cell growth reached the fusion, 0.05% trypsin and EDTA were added and digested at 37 °C for 5 min. The cells were inoculated on a 96-well transwell culture plate with an inoculation concentration of 1 × 10^5/cm^2 for the cell transport experiment. After inoculation, the solution was changed every 4 to 6 days, and the culture was observed by electron microscope at 21 to 28 days [6]. The TEER value was detected by a Millicell-ERS transmembrane resistance meter as the integrity indicator to judge the monolayer model of Caco-2 cells. TEER = (Rt − R0) × A (Ω cm^2)(1) where Rt is the resistance value of Cell pore; R0 is the resistance value of blank; and A is the compartment effective membrane area
Where [4] appears, read: Caco-2, 2 µM, 0.1% bull serum albumin added.
The mark [5] stands for this setting: 2 µM, 0.1% bull serum albumin added.

Each structure is given as a SMILES string. Where two headings read alike, the source gives them in different places.

On to `C[C@H]1O[C@@H](O[C@H]2[C@@H](O)C[C@H](O[C@H]3[C@@H](O)C[C@H](O[C@H]4CC[C@@]5(C)[C@H](CC[C@@H]6[C@@H]5C[C@@H](O)[C@]5(C)[C@@H](C7=CC(=O)OC7)CC[C@]65O)C4)O[C@@H]3C)O[C@@H]2C)C[C@H](O)[C@@H]1O` [Digoxin, digoxin, reference compound], for which, in data set [1] (setting [4]), the efflux ratio at 2 h, 2 µM is 485; the Papp A→B at 2 h, 2 µM is 0.023 ± 0.001 ×10⁻⁶ cm/s; the Papp B→A at 2 h, 2 µM is 10.4 ± 0.911 ×10⁻⁶ cm/s. Further, the efflux ratio at 2 h, 2 µM in data set [1] (Caco-2, 2 μM, no BSA) was 260. Moreover, in data set [1] (Caco-2, 2 μM, no BSA, 2 h), the Papp A→B at 2 h, 2 µM is 0.033 ± 0.003 ×10⁻⁶ cm/s and the Papp B→A at 2 h, 2 µM was determined as 9.05 ± 0.62 ×10⁻⁶ cm/s. Also, in data set [1] (Caco-2, text summary, no BSA), the recovery at 2 h was more than 83%. In addition, in data set [2] (setting [5]), the “Recoveries AP to BL” value is given as 84.14 ± 3.13%, the “Recoveries BL to AP” value came out at 93.35 ± 3.56%, the “Total Recoveries AP to BL” value is reported as 85.37 ± 3.52% and the “Total Recoveries BL to AP” value came out at 93.43 ± 4.63%. Further, in data set [2] (2 μM, no BSA), the “Recoveries AP to BL” value is given as 83.66 ± 3.14%, the “Recoveries BL to AP” value is 82.87 ± 4.38%, the “Total Recoveries AP to BL” value is on record as 86.44 ± 3.51% and the “Total Recoveries BL to AP” value is recorded as 83.31 ± 2.40%.

Take `CC(Cc1ccc(O)cc1)NCC(O)c1cc(O)cc(O)c1` (centres unmarked) [Fenoterol, fenoterol, reference compound]: the Papp A→B at 2 h, 2 µM stood at 0.091 ± 0.012 ×10⁻⁶ cm/s in data set [1] (setting [4]) and 0.055 ± 0.008 ×10⁻⁶ cm/s in data set [1] (Caco-2, 2 μM, no BSA, 2 h). For the same molecule, the recovery at 2 h in data set [1] (Caco-2, no BSA) is more than 83%. The “Recoveries AP to BL” value in data set [2] (setting [5]) is 94.38 ± 5.14%; in data set [2] (2 μM, no BSA) it was 87.67 ± 1.24%. The “Total Recoveries AP to BL” value in data set [2] (setting [5]) is recorded as 96.16 ± 6.72%; in data set [2] (2 μM, no BSA), 90.92 ± 4.23%.

For the molecule `CC(C)NCC(O)COc1cccc2ccccc12` (centres unmarked) [Propranolol, propranolol, reference compound], in data set [2] (Caco-2), the “total recovery rate AP→BL” value is 100% and the “total recovery rate of control drugs” value is “more than 83%”.

For `NNC(=O)NN1C(=O)c2cc(S(=O)(=O)[O-])cc3c(N)c(S(=O)(=O)[O-])cc(c23)C1=O.[Li+].[Li+]` [fluorescence yellow], in data set [3], the “Papp of fluorescence yellow” value was 0.15 ± 0.027 × 10^−6 cm·s^−1 and the transmittance worked out at 0.04 ± 0.005%.

As a reminder, the efflux ratio is a quotient of directional permeabilities that is used to spot active efflux.
